The assay has as its system Reactive Oxygen Species (ROS). The assay can be described thus: DPBF assay of photodynamic and sonodynamic ROS generation. The following applies: complexed with mPEG-UA nanocarrier vesicles. From the text: Photodynamic Reactive Oxygen Species (ROS) were generated by irradiation of red/green/blue (RGB) LEDs at 8 mW/cm^2 and detected by the 1,3-diphenylisobenzofuran (DPBF) assay. A photoreactive iron complex (Fe3[diCl-Sal-AHA]3OCH3 Na) from the Baldwin Lab (UC Chemistry) was employed as the photosensitizer and complexed with the mPEG-UA nanocarrier vesicles.

As to Fe3[diCl-Sal-AHA]3OCH3 Na, for the setting “RGB LEDs at 8 mW/cm^2”, the “photodynamic ROS generation” value was “photodynamic ROS are generated”.

On to sodium copper chlorophyllin, for which, where the note is “sonication at 1.0 MHz, 3 W/cm^2”, the “sonodynamic ROS generation” value is “Sonodynamic ROS were generated”.

The record behind these values is US11717578B2, “Undecylenic acid-based nanocarriers for targeted drug delivery” (University of Cincinnati, priority 2017, dated 2023).
